From ChEMBL document CHEMBL4507268 (2021)

What was measured:
Details in all cases: Compound concentration 1000.0 nM
[1] = biological target: Ribosomal protein S6 kinase alpha-1 (Homo sapiens) (UniProt Q15418)
[2] = biological target: T1, Activin receptor type-1B (Homo sapiens) (UniProt P36896)
T1 sequence (whole entry): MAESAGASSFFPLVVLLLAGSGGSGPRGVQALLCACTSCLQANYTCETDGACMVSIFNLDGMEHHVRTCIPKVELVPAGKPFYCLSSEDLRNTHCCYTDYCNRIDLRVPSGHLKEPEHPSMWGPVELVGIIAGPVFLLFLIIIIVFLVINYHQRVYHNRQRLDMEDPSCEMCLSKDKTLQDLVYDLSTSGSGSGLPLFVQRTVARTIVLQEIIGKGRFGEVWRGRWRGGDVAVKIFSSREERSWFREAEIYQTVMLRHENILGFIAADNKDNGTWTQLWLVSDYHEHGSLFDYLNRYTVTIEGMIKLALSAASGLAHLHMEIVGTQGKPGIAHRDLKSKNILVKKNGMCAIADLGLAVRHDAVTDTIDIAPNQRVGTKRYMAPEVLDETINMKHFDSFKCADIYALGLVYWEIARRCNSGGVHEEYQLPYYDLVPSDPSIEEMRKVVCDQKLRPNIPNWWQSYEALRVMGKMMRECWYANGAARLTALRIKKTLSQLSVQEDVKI

[3] = biological target: Activin receptor type-2B (Homo sapiens) (UniProt Q13705)
[4] = biological target: Cyclin-dependent kinase-like 3 (Homo sapiens) (UniProt Q8IVW4)
[5] = biological target: Receptor tyrosine-protein kinase erbB-4 (Homo sapiens) (UniProt Q15303)
[6] = tested on: Receptor-type tyrosine-protein kinase FLT3 (Homo sapiens), P36888 [R834Q]
[7] = biological target: Serine/threonine-protein kinase 35 (Homo sapiens) (UniProt Q8TDR2)
Sequence of Serine/threonine-protein kinase 35 (Homo sapiens) (Q8TDR2 whole entry): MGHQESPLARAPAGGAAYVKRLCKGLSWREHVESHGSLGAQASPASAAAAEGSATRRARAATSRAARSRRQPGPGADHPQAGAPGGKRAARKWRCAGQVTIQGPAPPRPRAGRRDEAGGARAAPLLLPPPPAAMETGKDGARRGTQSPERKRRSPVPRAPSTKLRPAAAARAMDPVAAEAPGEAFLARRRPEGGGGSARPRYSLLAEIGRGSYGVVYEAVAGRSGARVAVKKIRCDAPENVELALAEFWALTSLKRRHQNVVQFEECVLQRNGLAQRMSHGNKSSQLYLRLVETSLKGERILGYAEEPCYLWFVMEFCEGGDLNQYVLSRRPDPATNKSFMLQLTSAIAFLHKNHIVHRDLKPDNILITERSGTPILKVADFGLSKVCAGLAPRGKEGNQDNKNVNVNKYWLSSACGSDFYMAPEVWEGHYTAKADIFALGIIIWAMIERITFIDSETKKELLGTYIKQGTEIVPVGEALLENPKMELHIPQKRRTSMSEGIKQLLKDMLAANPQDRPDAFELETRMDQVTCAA

[8] = biological target: Rho-associated protein kinase 2 (Homo sapiens) (UniProt O75116)
Sequence of Rho-associated protein kinase 2 (Homo sapiens) (O75116 whole entry, looked up): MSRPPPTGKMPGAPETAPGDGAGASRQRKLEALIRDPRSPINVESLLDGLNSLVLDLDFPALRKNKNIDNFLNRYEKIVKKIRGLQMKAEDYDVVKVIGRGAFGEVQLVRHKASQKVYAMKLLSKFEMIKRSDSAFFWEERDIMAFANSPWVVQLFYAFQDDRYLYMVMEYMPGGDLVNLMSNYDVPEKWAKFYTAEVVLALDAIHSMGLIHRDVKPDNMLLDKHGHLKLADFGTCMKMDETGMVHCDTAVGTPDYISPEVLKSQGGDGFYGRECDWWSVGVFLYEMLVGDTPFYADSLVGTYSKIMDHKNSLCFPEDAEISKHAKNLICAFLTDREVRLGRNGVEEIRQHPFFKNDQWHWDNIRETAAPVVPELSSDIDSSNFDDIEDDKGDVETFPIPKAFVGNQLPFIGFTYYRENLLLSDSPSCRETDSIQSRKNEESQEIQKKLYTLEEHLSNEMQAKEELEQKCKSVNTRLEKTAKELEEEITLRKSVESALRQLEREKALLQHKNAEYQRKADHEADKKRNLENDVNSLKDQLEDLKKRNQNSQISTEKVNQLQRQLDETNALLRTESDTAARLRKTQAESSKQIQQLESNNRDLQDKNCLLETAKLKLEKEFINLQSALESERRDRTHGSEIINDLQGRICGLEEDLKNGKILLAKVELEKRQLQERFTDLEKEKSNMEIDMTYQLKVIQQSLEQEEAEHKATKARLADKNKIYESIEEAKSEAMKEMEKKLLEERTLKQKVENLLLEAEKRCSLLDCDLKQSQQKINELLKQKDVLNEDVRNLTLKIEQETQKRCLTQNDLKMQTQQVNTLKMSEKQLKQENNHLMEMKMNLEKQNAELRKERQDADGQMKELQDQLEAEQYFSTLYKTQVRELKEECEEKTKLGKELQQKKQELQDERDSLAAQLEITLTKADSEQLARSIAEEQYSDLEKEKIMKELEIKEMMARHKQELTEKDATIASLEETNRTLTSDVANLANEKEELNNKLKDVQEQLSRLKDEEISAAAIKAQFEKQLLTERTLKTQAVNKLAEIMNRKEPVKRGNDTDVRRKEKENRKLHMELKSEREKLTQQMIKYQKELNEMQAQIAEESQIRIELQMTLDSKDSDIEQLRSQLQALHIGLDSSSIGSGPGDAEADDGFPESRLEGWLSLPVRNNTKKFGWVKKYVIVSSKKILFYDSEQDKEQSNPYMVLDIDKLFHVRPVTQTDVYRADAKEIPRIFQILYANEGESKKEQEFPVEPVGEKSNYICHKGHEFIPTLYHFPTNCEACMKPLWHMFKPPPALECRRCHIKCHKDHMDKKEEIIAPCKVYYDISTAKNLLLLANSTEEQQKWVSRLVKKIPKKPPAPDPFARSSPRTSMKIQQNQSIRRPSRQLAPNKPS

[9] = tested on: Receptor-type tyrosine-protein kinase FLT3 (Homo sapiens), P36888 [D835Y]
[10] = biological target: TRAF2 and NCK-interacting protein kinase (Homo sapiens) (UniProt Q9UKE5)
[11] = biological target: Death-associated protein kinase 3 (Homo sapiens) (UniProt O43293)
Sequence of Death-associated protein kinase 3 (Homo sapiens) (O43293 whole entry, looked up): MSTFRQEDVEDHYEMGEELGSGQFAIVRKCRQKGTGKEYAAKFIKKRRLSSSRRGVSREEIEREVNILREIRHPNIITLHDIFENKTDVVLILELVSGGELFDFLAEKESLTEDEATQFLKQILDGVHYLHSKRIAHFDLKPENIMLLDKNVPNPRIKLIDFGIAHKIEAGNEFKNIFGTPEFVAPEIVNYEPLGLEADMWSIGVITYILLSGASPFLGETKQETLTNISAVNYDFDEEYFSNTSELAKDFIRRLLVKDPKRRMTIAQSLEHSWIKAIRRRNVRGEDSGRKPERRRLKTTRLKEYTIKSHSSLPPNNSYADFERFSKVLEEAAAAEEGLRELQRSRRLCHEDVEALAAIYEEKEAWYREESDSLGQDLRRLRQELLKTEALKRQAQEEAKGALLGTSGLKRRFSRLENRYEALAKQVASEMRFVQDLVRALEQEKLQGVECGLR

[12] = biological target: Ribosomal protein S6 kinase alpha-4 (Homo sapiens) (UniProt O75676)
[13] = biological target: Serine/threonine-protein kinase WNK4 (Homo sapiens) (UniProt Q96J92)
Sequence of Serine/threonine-protein kinase WNK4 (Homo sapiens) (Q96J92 whole entry): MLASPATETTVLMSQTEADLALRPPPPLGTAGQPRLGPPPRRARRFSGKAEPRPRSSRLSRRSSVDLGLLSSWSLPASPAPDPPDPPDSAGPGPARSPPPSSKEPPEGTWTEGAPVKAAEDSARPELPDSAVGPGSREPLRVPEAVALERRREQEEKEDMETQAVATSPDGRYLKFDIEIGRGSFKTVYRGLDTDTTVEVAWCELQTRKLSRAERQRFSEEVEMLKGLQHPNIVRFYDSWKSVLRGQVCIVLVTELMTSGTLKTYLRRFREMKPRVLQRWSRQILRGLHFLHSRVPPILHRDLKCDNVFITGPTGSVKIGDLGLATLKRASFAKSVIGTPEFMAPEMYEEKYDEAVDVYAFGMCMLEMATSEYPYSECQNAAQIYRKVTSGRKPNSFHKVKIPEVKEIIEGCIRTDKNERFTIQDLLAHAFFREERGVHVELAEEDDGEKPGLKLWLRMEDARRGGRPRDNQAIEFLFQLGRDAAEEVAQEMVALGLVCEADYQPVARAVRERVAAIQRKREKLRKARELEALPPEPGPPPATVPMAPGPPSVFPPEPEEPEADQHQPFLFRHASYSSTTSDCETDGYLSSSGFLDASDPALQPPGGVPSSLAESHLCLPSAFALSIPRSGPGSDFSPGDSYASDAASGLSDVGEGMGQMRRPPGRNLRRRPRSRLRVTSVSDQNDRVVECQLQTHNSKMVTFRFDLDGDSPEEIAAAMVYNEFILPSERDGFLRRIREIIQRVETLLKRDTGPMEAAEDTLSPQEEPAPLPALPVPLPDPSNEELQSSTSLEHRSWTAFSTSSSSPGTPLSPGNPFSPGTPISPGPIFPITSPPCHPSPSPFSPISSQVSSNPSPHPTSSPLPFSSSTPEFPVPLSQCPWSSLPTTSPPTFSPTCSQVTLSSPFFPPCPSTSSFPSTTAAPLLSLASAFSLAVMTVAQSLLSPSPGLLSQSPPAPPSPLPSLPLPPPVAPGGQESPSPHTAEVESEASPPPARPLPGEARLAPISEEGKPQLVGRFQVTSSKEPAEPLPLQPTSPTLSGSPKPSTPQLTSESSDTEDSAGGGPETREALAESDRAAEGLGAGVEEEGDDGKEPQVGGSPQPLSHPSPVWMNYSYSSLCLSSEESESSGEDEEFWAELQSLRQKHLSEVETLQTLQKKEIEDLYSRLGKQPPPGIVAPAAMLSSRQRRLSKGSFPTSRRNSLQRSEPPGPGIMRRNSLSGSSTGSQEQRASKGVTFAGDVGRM

[14] = tested on: Tyrosine-protein kinase ABL1 (Homo sapiens), P00519 [M351T]
[15] = biological target: Serine/threonine-protein kinase MARK2 (Homo sapiens) (UniProt Q7KZI7)
[16] = tested on: Receptor-type tyrosine-protein kinase FLT3 (Homo sapiens), P36888 [N841I]
[17] = biological target: T2, Ephrin type-A receptor 3 (Homo sapiens) (UniProt P29320)
T2 sequence (whole entry): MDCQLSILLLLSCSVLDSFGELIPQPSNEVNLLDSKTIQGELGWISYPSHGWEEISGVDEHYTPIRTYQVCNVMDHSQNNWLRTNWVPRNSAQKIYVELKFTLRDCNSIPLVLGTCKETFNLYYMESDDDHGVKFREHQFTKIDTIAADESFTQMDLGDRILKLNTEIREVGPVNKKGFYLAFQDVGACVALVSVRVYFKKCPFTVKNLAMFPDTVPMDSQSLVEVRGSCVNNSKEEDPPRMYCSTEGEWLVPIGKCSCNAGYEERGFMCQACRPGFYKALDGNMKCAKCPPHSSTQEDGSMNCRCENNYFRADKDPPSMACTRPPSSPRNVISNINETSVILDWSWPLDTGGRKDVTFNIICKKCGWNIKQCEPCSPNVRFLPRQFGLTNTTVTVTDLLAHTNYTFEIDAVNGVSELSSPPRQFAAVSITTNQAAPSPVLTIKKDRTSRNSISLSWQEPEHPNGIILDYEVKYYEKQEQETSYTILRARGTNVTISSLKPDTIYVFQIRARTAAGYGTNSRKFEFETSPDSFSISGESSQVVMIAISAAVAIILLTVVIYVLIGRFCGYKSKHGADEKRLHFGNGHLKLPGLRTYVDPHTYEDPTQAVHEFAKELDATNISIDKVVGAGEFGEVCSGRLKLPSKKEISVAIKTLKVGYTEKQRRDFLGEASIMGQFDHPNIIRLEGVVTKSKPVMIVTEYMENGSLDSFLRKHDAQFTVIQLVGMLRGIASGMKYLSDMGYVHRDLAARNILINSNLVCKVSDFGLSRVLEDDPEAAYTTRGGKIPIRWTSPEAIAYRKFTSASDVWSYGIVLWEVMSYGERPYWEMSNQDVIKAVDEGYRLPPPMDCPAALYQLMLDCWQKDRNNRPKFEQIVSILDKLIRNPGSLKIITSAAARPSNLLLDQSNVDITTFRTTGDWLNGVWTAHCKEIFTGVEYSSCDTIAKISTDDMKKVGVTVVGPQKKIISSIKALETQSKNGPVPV

[18] = biological target: Calcium/calmodulin-dependent protein kinase type II subunit delta (Homo sapiens) (UniProt Q13557)
[19] = biological target: Casein kinase I isoform alpha (Homo sapiens) (UniProt P48729)
Sequence of Casein kinase I isoform alpha (Homo sapiens) (P48729 2-337 limits assumed): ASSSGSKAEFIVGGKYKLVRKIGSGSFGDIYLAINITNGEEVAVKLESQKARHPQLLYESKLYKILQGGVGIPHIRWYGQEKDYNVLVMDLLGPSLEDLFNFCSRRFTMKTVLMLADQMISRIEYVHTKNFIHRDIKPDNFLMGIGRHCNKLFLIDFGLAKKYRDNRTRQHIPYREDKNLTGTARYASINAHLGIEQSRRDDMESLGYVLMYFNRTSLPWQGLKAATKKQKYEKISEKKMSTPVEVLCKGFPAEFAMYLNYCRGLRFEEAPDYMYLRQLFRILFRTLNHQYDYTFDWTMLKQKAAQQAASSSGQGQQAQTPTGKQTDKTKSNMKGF

[20] = biological target: Tyrosine-protein kinase FRK (Homo sapiens) (UniProt P42685)
[21] = tested on: Tyrosine-protein kinase ABL1 (Homo sapiens), P00519 [F317L]
[22] = biological target: Maternal embryonic leucine zipper kinase (Homo sapiens) (UniProt Q14680)
[23] = biological target: Serine/threonine-protein kinase PAK 5 (Homo sapiens) (UniProt Q9P286)
[24] = biological target: Cyclin-dependent kinase 18 (Homo sapiens) (UniProt Q07002)
[25] = biological target: NT-3 growth factor receptor (Homo sapiens) (UniProt Q16288)

Measured: residual activity

Sequence of Ribosomal protein S6 kinase alpha-1 (Homo sapiens) (Q15418 whole entry): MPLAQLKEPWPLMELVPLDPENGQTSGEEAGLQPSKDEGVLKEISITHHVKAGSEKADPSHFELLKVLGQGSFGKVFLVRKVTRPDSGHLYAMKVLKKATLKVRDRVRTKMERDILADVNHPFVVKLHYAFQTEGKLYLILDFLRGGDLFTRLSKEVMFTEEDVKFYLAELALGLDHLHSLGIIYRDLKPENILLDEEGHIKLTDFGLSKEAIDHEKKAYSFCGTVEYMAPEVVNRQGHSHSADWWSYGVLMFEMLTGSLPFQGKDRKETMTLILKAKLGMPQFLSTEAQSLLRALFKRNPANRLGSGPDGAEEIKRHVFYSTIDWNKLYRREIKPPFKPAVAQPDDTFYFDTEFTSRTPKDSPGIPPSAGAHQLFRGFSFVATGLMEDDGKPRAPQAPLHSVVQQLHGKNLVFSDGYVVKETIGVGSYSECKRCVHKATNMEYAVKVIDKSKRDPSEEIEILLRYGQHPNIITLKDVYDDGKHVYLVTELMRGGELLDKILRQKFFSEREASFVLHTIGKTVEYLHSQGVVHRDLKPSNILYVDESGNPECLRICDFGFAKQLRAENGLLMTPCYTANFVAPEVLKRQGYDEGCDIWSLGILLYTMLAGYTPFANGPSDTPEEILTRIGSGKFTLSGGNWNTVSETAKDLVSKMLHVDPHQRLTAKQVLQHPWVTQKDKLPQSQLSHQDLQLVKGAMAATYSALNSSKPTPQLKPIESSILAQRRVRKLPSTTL

Cc1nc(C2CCN(C(=O)c3ccc(OC(F)(F)F)cc3N)CC2)c2ncc(N3CCN(C)CC3)cc2n1 [BAY-693]
inactive: [1] 100% | [2] 86% | [3] 100% | [4] 92% | [5] 100% | [6] 100% | [7] 100% | [8] 91% | [9] 97% | [10] 100% | [11] 100% | [12] 93% | [13] 100% | [14] 100% | [15] 100% | [16] 100% | [17] 92% | [18] 100% | [19] 100% | [20] 95% | [21] 97% | [22] 93% | [23] 99% | [24] 100% | [25] 97%

CN1CCN(c2cnc3c(C4CCN(C(=O)c5ccc(OC(F)(F)F)cc5N)CC4)ncnc3c2)CC1 [BAY-885]
inactive: [1] 100% | [2] 79% | [3] 100% | [4] 92% | [5] 79% | [6] 100% | [7] 100% | [8] 100% | [9] 100% | [10] 100% | [11] 91% | [12] 100% | [13] 99% | [14] 100% | [15] 100% | [16] 100% | [17] 100% | [18] 100% | [19] 91% | [20] 100% | [21] 100% | [22] 85% | [23] 100% | [24] 100% | [25] 100%
